According to US20070270441A1, “Combination” (Altana Pharma AG, priority 2001, published 2007):
“Also recorded” adds a separate entry of the source.

Assays:
[1] = system: Collagen-induced arthritis (CIA) in DBA/1 mice; experiment: Collagen-induced arthritis (CIA) in DBA/1 mice; assay type: in vivo; conditions: for severity of arthritis compared with control mice: single drug, oral daily for 10 consecutive days, ROFLUMILAST 1 mg/kg, PUMAFENTRINE hydrochloride 3 mg/kg, significant on days 35 and 39
Description: Collagen-induced arthritis (CIA) in DBA/1 mice: Mice were immunized intradermally with 200 μg/mouse of type II (CII) bovine collagen in Freund's complete adjuvant (FCA) and challenged intraperitoneally 21 days later with 200 μg/mouse of CII in saline. The mice were then administered orally either with 1 mg/kg/day of 3-Cyclopropylmethoxy-4-difluoromethoxy-N-(3,5-dichloropyrid-4-yl)-benzamide [INN: ROFLUMILAST], 3 mg/kg/day of (−)-cis-9-ethoxy-8-methoxy-2-methyl-1,2,3,4,4a,10b-hexahydro-6-(4-diisopropylaminocarbonylphenyl)-benzo[c][1,6]naphthyridine hydrochloride [INN: PUMAFENTRINE hydrochloride], 1 mg/kg/day of METHOTREXATE, or with combinations of METHOTREXATE and the PDE inhibitors for 10 consecutive days, starting 2 days after challenge injection. Control mice received either METHOTREXATE alone (1 mg/kg/day) or the vehicle only.
DBA/1 mice were obtained from Harlan Olac (Bicester, UK) and used 8 weeks old. CIA was induced as described previously (Ruchatz, H., et al., J Immunol. 1998, 160(11):5654-60). Briefly, mice were immunised by intradermal injection of 200 μg of acidified type II collagen (Sigma, Poole UK) emulsified in Freund's Complete adjuvant (FCA, Difco, Detroit, Mich., USA). Collagen (200 μg in PBS) was injected intraperitoneally on day 21 (challenge). Mice were individually ear marked for identification. They were monitored daily and scored every other day for signs of arthritis as follows: 0=normal, 1=erythema, 2=erythema plus swelling, 3=extension/loss of function, and total score=sum of four limbs. Paw thickness was measured with a dial-calliper (Kroeplin, Munich, Germany). […] (3 mg/kg, calculated for PUMAFENTRINE), METHOTREXATE (1 mg/kg), or combinations were administered orally daily by a gavage tube for 10 consecutive days. […] Treatment was withdrawn on day 33 and the mice monitored for a further 8 days. Influence of drug treatments on mean clinical index, arthritic paws and paw thickness were analysed by one-way ANOVA at days 31, 35, and 39. Between group differences in incidence of arthritis were analysed by chi-square test.

[2] = system: rheumatoid arthritis patients with active disease despite METHOTREXATE treatment; conditions: in combination with a fixed low-dose (7.5 mg per week) of METHOTREXATE; small number of patients; cited from earlier work
[3] = system: rheumatoid arthritis patients unresponsive to METHOTREXATE alone; conditions: combination with METHOTREXATE; cited from earlier work

In the case of `CN(Cc1cnc2nc(N)nc(N)c2n1)c1ccc(C(=O)N[C@@H](CCC(=O)O)C(=O)O)cc1` [METHOTREXATE, N-(p{[(2,4-diamino-6-pteridinyl)methyl]methylamino}benzoyl)-L-(+)-glutamic acid], the “clinical improvement compared with control mice” value ([1]; METHOTREXATE alone 1 mg/kg/day, oral, 10 days) is reported as “failed to produce a significant clinical improvement; also recorded: failed to demonstrate any clinical improvement”.
In the case of “INFLIXIMAB: chimeric human-murine monoclonal antibody, a specific inhibitor of tumour necrosis factor alpha”, the “degree and duration of efficacy” value [2] is given as “enhanced degree and duration of efficacy”.
In the case of ETANERCEPT, the “efficacy in rheumatoid arthritis” value [3] is given as “effective”.
In the case of `CCOc1cc2c(cc1OC)C(c1ccc(C(=O)N(C(C)C)C(C)C)cc1)=N[C@H]1CCN(C)C[C@@H]21.Cl` [PUMAFENTRINE hydrochloride, (−)-cis-9-ethoxy-8-methoxy-2-methyl-1,2,3,4,4a,10b-hexahydro-6-(4-diisopropylaminocarbonylphenyl)-benzo[c][1,6]naphthyridine hydrochloride], the “severity of arthritis compared with control mice” value ([1]; hydrochloride) is reported as “effective in reducing the severity of arthritis; also recorded: significantly less severe disease”.
With `O=C(Nc1c(Cl)cncc1Cl)c1ccc(OC(F)F)c(OCC2CC2)c1` [ROFLUMILAST, 3-Cyclopropylmethoxy-4-difluoromethoxy-N-(3,5-dichloropyrid-4-yl)-benzamide] the “severity of arthritis compared with control mice” value [1] was “effective in reducing the severity of arthritis; also recorded: significantly less severe disease”.
